# According to article PMC3530532, “Corticosteroid-Binding Globulin: Structure-Function Implications from Species Differences” (PLoS ONE, 2012):
# Molecular target: T1, Human CBG-WT (Homo sapiens, UniProt P08185, K148A)
# T1 construct: residues 11 to 383 of human CBG (Swiss-Prot entry P08185); GST (N, cleaved yes); made in house; host or cells: E. coli BL21 Star (DE3)
# T1 sequence (P08185 33-405 K148A): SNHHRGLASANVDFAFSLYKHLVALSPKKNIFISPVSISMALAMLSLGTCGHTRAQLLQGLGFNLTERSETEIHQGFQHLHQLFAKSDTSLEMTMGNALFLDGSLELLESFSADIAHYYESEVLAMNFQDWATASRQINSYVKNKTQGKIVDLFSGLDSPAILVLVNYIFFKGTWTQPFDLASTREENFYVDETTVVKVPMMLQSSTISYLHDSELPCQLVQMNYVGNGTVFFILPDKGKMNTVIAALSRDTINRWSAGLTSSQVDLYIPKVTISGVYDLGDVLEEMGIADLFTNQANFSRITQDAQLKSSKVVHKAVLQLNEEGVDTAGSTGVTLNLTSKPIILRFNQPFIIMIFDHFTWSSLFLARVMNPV
# Experiment: Isothermal titration calorimetry, steroid titrated to uncleaved human CBG-WT
# Type: binding
# Details: ITC, 25°C
# Procedure: The coding sequences of residues 11 to 383 of human CBG (Swiss-Prot entry P08185) and residues 5 to 374 of rat CBG (P31211) were cloned into a pGEX-2T vector (GE Healthcare, Uppsala), yielding N-terminal glutathione-S-transferase (GST) fusion proteins. Mutations were introduced using a two-stage PCR procedure based on the QuikChange (Stratagene, Santa Clara) site-directed mutagenesis protocol. All experiments with human CBG were conducted with a mutant in which surface residue Lys126 was replaced by alanine in order to facilitate crystallization. Wild-type rat CBG (rat CBG-WT) and rat CBG mutants CBG-RCL1, CBG-RCL2 and CBG-RCL3 were produced to probe the function of the RCL residues in rat CBG. All gene constructs were confirmed by DNA sequencing prior to protein production.
# The GST-tagged human and rat CBG variants were produced in E. coli BL21 Star™ (DE3) cells (Invitrogen, Carlsbad) using the ZYM-5052 auto-inducing medium. For each variant, 10 L of ZYM-5052 medium containing 100 µg/mL ampicillin were inoculated with an overnight culture of a single clone. The flasks were incubated at 37°C until the optical density at 600 nm reached 0.3. The temperature was then lowered to 20°C, and the cells were allowed to grow for an additional 20 h. The pellet was resuspended in PBS buffer (pH 7.4) containing 5 mM EDTA after cell harvesting (4 mL of buffer per gram of pellet).
# The protein samples were dialyzed against ITC buffer (20 mM potassium phosphate, 50 mM NaCl, pH 7.4) and titrated with steroids in a VP-ITC microcalorimeter (Microcal, Piscataway). All solutions were filtered (0.2 µm filter pore size) and degassed for 30 min prior to the titration experiments. The sample cell was filled with protein solution containing 15 µM rat CBG or 20 µM human CBG and titrated with steroid solutions containing 150 µM and 200 µM ligand, respectively. The titrations consisted of an initial injection of 2 µL followed by 25 consecutive injections of 10 µL ligand solution at 25°C. A spacing of 240 sec between the injections was used to allow a return to the baseline. Data points from the initial injection, which are generally affected by diffusion during the initial equilibration period after experiment setup, were discarded prior to data analysis. […] The binding curve was generated by plotting the heats of injections against the ratio of ligand to protein in the cell. Integrated heat data were analyzed using nonlinear regression fit with a one-site-binding model in the Origin-7™ software provided with the VP-ITC. Changes in the free energy and entropy can be calculated using the equation: ΔG° = −RTlnK = ΔH°−TΔS°. In this equation ΔG° is the change in Gibbs free energy, R the universal gas constant, T the temperature, and K the association constant. […]
smiles,measurement,setting,value
C[C@]12CCC(=O)C=C1CC[C@@H]1[C@@H]2[C@@H](O)C[C@@]2(C)[C@H]1CC[C@]2(O)C(=O)CO [Hydrocortisone],Kd,"single titration, uncleaved human CBG-WT (K126A, E. coli produced)",45 ± 7 nM
same,TΔS°,uncleaved human CBG-WT,-26.08 kcal/mol
same,ΔG°,uncleaved human CBG-WT,-10.1 kcal/mol
same,ΔH°,uncleaved human CBG-WT,-36.14 kcal/mol
